Like-named read-outs stand apart in the source and are kept apart here.
Experiments:
[1] = Acute toxicity (LD50, Litchfield-Wilcoxon method); settings: mouse, in vivo, male mice
Experimental: LD50 values of oxidized derivatives of steryl-β-D-glucoside and acetyl derivatives thereof were calculated by Litchfield-Wilcoxon method using male mice.

[2] = test system: bleeding at the end of mouse's tail; assay: Hemostatic effects: influences on bleeding at the end of mouse's tail; type: in vivo; settings: vs untreated control
Experimental: Influences on bleeding at the end of mouse's tail:
Groups each comprising 10 male mice were employed. According to a method of Motohashi, et al. [Journal of Tokyo Jikei-kai Medical College, 75 (5) (1959)], the end of tail (1 cm) of each mouse was cut out with a sharp surgical knife and the blood threading from the wound into water was observed. A time required until the bleeding stopped completely was measured and rate of readuction of the bleeding time as compared with that of untreated control group was calculated.

[3] = test system: hemorrage in mouse's lung; assay: Capillary stabilizing effects: inhibiting hemorrage in mouse's lung caused by pressure reduction; type: in vivo; settings: pressure reduction to 50±0.5 mmHg/15 sec., score method; for ED50: Mus musculus, oral administration
Experimental: C. Capillary stabilizing effects:
Effects of inhibiting hemorrage in mouse's lung:
Degree of hemorrage in mouse's lung caused by pressure reduction to 50±0.5 mmHg/15 sec. was determined by a method of G. J. Mojovski, et al. [J. Pharm. Exp. Therap., 80, 1, (1944)] (score method). From the inhibition rate calculated as compared with untreated control group, ED50 of the sample was calculated.

[4] = ip, intraperitoneal administration, read-out: LD50 Intraperitoneal administration
[5] = oral administration, read-out: LD50 Oral administration

| SMILES | LD50 [1, 4] | LD50 [1, 5] | Reduction rate (of bleeding time) ([2]; 0.1 mg/Kg i.p.) | ED50 [3] | also measured |
| --- | --- | --- | --- | --- | --- |
| CC(=O)OCC1OC(OC2CCC3(C)C(=CC(=O)C4C3CCC3(C)C(C(C)CCCC(C)C)CCC43)C2)C(OC(C)=O)C(OC(C)=O)C1OC(C)=O [Compound 5, (7-Ketocholesteryl)-2,3,4,6-tetra-0-acetyl-β-D-glucopyranoside] | > 15000 mg/kg | > 12000 mg/kg | – | – | – |
| CCC(CCC(C)C1CCC2C3C(=O)C=C4CC(OC5OC(COC(C)=O)C(OC(C)=O)C(OC(C)=O)C5OC(C)=O)CCC4(C)C3CCC12C)C(C)C (centres unmarked) [Compound 6] | – | – | 22% | 62 mg/kg | – |
| CC(C)CCCC(C)C1CCC2C3C(=O)C=C4CC(OC5OC(CO)C(O)C(O)C5O)CCC4(C)C3CCC12C [Compound 8, (7-Ketocholesteryl)-β-D-glucopyranoside] | > 15000 mg/kg | > 12000 mg/kg | 36% | – | – |
| CCC(C=CC(C)C1CCC2C3C(=O)C=C4CC(OC5OC(CO)C(O)C(O)C5O)CCC4(C)C3CCC12C)C(C)C (centres unmarked) [Compound 10] | – | – | – | 43 mg/kg | – |
| CC(=O)OCC1OC(OC2CCC3(C)C(=CC(O)C4C3CCC3(C)C(C(C)CCCC(C)C)CCC43)C2)C(OC(C)=O)C(OC(C)=O)C1OC(C)=O [Compound 11, (7-hydroxycholesteryl)-2,3,4,6-tetra-0-acetyl-β-D-glucopyranoside] | – | – | 18% | – | – |
| CCC(CCC(C)C1CCC2C3C(O)C=C4CC(OC5OC(COC(C)=O)C(OC(C)=O)C(OC(C)=O)C5OC(C)=O)CCC4(C)C3CCC12C)C(C)C (centres unmarked) [Compound 12] | > 15000 mg/kg | > 12000 mg/kg | – | – | – |
| CC(C)CCCC(C)C1CCC2C3C(O)C=C4CC(OC5OC(CO)C(O)C(O)C5O)CCC4(C)C3CCC12C [Compound 14, (7-Hydroxycholesteryl)-β-D-glucopyranoside] | – | – | – | 38 mg/kg | – |
| CCC(C=CC(C)C1CCC2C3C(O)C=C4CC(OC5OC(CO)C(O)C(O)C5O)CCC4(C)C3CCC12C)C(C)C (centres unmarked) [Compound 16] | > 15000 mg/kg | > 12000 mg/kg | 23% | – | – |
| CN1C2=CC(=O)/C(=N\NC(N)=O)C=C2CC1S(=O)(=O)[O-].[Na+] (centres unmarked) [Sodium carbazochromesulfonate, reference compound] | – | – | – | – | Reduction rate (of bleeding time) ([2]; 10.0 mg/Kg i.p.): 21%; ED50 oral administration [3]: > 400 mg/kg |
